From ChEMBL document CHEMBL1136098, “Semisynthetic preparation of amentoflavone: A negative modulator at GABA(A) receptors” (Bioorg Med Chem Lett, 2003)

Assays:
D(3) dopamine receptor = D(3) dopamine receptor (Homo sapiens, UniProt P35462); assay: Binding affinity (in vitro) against Dopamine receptor D3 using radio-ligand binding assay; set-up: species or system Sus scrofa
[1] = biological target: Delta-type opioid receptor (Sus scrofa, UniProt P79291); assay: Binding affinity (in vitro) against Opioid receptor delta 1 using radio-ligand binding assay
[2] = biological target: T1, GABA-A receptor; alpha-1/beta-2/gamma-2 (Homo sapiens, UniProt P14867+P18507+P47870); assay: Effective concentration against human recombinant GABA-A receptor alpha-1-beta-2-gamma-2 subunits expressed in Xenopus oocytes; type: cell-based, Oocyte
T1 sequence (P14867 whole entry): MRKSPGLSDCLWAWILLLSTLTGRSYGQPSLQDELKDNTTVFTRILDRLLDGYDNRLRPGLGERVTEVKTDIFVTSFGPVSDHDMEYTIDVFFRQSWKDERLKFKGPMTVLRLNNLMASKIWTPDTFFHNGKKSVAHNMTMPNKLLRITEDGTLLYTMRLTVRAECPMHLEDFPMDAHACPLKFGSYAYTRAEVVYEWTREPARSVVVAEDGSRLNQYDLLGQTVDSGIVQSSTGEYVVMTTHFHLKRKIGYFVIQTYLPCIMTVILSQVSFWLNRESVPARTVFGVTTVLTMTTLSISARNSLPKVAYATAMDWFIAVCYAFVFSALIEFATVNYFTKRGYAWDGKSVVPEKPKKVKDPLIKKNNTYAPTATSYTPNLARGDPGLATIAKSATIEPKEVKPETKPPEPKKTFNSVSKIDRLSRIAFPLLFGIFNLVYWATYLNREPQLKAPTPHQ
T1 sequence (P47870 whole entry): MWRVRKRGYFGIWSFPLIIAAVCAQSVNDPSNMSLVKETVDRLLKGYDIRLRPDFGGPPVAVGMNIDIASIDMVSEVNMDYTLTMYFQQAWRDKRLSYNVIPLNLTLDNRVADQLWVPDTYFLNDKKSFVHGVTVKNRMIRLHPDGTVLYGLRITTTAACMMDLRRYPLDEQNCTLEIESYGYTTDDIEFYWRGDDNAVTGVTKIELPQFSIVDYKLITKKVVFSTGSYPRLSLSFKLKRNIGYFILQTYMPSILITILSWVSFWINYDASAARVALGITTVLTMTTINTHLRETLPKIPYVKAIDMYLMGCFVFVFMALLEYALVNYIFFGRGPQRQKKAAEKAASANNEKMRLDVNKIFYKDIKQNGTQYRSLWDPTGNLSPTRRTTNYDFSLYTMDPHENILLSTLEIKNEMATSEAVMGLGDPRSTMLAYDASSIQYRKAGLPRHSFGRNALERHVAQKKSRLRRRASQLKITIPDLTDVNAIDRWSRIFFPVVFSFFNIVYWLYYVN
T1 sequence (P18507 whole entry): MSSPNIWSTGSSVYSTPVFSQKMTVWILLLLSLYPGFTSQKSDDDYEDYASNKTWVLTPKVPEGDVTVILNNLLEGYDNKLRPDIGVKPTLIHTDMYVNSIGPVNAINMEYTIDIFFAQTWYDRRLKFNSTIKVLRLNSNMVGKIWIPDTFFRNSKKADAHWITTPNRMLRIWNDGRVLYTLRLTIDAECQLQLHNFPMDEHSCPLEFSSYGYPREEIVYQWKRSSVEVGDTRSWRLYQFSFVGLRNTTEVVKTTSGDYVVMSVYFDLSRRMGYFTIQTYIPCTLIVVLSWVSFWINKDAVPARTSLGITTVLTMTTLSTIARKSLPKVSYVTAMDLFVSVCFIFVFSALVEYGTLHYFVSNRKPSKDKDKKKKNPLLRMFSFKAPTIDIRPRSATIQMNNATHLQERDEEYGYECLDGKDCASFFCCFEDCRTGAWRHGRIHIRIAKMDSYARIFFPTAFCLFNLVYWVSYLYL

[3] = biological target: GABA-A receptor; anion channel; assay: Binding affinity for GABA-A benzodiazepine receptor; type: protein-complex assay
[4] = biological target: GABA-A receptor; anion channel; assay: Inhibition of [3H]flunitrazepam binding to rat brain GABA-A benzodiazepine receptor
[5] = biological target: GABA-A receptor; anion channel; assay: Binding affinity for human cloned GABA-A benzodiazepine receptor; type: protein-complex assay
[6] = biological target: 5-hydroxytryptamine receptor 1D (Sus scrofa, UniProt P79400); assay: Binding affinity (in vitro) against 5-hydroxytryptamine 1D receptor alpha using radio-ligand binding assay
Sequence of 5-hydroxytryptamine receptor 1D (P79400 whole entry): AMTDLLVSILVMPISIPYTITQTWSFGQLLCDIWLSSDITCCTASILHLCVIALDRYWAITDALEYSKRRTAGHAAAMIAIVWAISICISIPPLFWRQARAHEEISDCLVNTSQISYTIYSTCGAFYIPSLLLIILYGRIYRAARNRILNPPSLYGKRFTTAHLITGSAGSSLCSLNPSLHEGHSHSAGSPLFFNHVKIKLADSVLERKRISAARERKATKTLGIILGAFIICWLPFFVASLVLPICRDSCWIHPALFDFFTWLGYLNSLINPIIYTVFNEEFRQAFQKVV

Sequence of Delta-type opioid receptor (P79291 whole entry): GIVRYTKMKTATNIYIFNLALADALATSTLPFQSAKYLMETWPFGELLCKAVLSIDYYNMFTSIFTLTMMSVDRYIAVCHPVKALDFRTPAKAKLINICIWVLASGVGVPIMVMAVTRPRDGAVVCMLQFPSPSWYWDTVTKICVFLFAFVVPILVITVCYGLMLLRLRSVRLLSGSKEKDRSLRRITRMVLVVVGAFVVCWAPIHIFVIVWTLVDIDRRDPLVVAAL
Sequence of D(3) dopamine receptor (P35462 whole entry): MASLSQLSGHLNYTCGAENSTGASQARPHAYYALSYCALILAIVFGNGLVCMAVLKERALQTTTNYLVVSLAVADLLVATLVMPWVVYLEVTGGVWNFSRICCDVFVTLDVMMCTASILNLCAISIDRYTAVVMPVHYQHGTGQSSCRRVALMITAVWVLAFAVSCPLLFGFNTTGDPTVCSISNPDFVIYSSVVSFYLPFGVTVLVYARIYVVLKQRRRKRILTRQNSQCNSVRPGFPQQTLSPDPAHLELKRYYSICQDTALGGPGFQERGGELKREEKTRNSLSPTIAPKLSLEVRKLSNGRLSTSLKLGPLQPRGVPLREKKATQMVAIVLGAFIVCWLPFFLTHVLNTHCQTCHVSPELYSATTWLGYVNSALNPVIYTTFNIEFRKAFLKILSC

**Q.** Which Ki (D(3) dopamine receptor) does the source give for `O=c1cc(-c2ccc(O)c(-c3c(O)cc(O)c4c(=O)cc(-c5ccc(O)cc5)oc34)c2)oc2cc(O)cc(O)c12` [AMENTOFLAVONE] here?
**A.** The Ki was 1.24 µM.

**Q.** What about the Ki [1] of the same compound?
**A.** The Ki was 0.0365 µM.

**Q.** And the EC50 [2]?
**A.** The EC50 was 3.6 µM.

**Q.** What about the Ki [3] of the same compound?
**A.** Its Ki is 0.006 µM.

**Q.** What about the IC50 [4] of the same compound?
**A.** Its IC50 is 0.0149 µM.

**Q.** And the Ki [5]?
**A.** The Ki was 0.006 µM.

**Q.** What about the Ki [6] of the same compound?
**A.** Its Ki is 4.09 µM.
